From the kinase profiling compilation of Christmann-Franck et al. (2016)
Each block holds one compound with its values, some of them ahead of it.

Legend:
Assay in all cases: KINOMEscan competition binding
[1] = molecular target: FGFR1 (human) (UniProt P11362); conditions: compound 10.0 µM
[2] = molecular target: AKT2 (human) (UniProt P31751); conditions: compound 10.0 µM
[3] = molecular target: NEK1 (human) (UniProt Q96PY6); conditions: compound 10.0 µM
[4] = molecular target: MAP3K4 (human) (UniProt Q9Y6R4); conditions: compound 10.0 µM
[5] = molecular target: LIMK2 (human) (UniProt P53671); conditions: compound 10.0 µM
[6] = molecular target: NEK5 (human) (UniProt Q6P3R8); conditions: compound 10.0 µM
[7] = molecular target: PRKCQ (human) (UniProt Q04759); conditions: compound 10.0 µM
[8] = molecular target: DYRK1B (human) (UniProt Q9Y463); conditions: compound 10.0 µM
[9] = molecular target: MST4 (human) (UniProt Q9P289); conditions: compound 10.0 µM
[10] = molecular target: BRSK2 (human) (UniProt Q8IWQ3); conditions: compound 10.0 µM
[11] = molecular target: MINK1 (human) (UniProt Q8N4C8); conditions: compound 10.0 µM
[12] = molecular target: CSNK2A1 (human) (UniProt P68400); conditions: compound 10.0 µM
[13] = molecular target: PRKCH (human) (UniProt P24723); conditions: compound 10.0 µM
[14] = molecular target: CDC42BPG (human) (UniProt Q6DT37); conditions: compound 10.0 µM
[15] = molecular target: TESK1 (human) (UniProt Q15569); conditions: compound 10.0 µM
[16] = molecular target: RPS6KA4 KD2 (human) (UniProt O75676); conditions: compound 10.0 µM
[17] = molecular target: EPHB2 (human) (UniProt P29323); conditions: compound 10.0 µM
[18] = molecular target: TAOK1 (human) (UniProt Q7L7X3); conditions: compound 10.0 µM
[19] = molecular target: STK10 (human) (UniProt O94804); conditions: compound 10.0 µM
[20] = molecular target: CLK4 (human) (UniProt Q9HAZ1); conditions: compound 10.0 µM
[21] = molecular target: MST1R (human) (UniProt Q04912); conditions: compound 10.0 µM
[22] = molecular target: PRKD2 (human) (UniProt Q9BZL6); conditions: compound 10.0 µM
[23] = molecular target: TEC (human) (UniProt P42680); conditions: compound 10.0 µM
[24] = molecular target: MAPK13 (human) (UniProt O15264); conditions: compound 10.0 µM
[25] = molecular target: CDK14 (human) (UniProt O94921); conditions: compound 10.0 µM
[26] = molecular target: LIMK1 (human) (UniProt P53667); conditions: compound 10.0 µM
[27] = molecular target: MAPK3 (human) (UniProt P27361); conditions: compound 10.0 µM
[28] = molecular target: IKBKE (human) (UniProt Q14164); conditions: compound 10.0 µM
[29] = molecular target: PRKD3 (human) (UniProt O94806); conditions: compound 10.0 µM
[30] = molecular target: DCLK1 (human) (UniProt O15075); conditions: compound 10.0 µM
[31] = molecular target: NEK7 (human) (UniProt Q8TDX7); conditions: compound 10.0 µM
[32] = molecular target: DAPK1 (human) (UniProt P53355); conditions: compound 10.0 µM
[33] = molecular target: MAPK14 (human) (UniProt Q16539); conditions: compound 10.0 µM
[34] = molecular target: ERBB4 (human) (UniProt Q15303); conditions: compound 10.0 µM
[35] = molecular target: PTK2 (human) (UniProt Q05397); conditions: compound 10.0 µM
[36] = molecular target: AURKB (human) (UniProt Q96GD4); conditions: compound 10.0 µM
[37] = molecular target: NUAK1 (human) (UniProt O60285); conditions: compound 10.0 µM
[38] = molecular target: MYLK2 (human) (UniProt Q9H1R3); conditions: compound 10.0 µM
[39] = molecular target: FES (human) (UniProt P07332); conditions: for kinase still bound, per cent of control: compound 10.0 µM
[40] = system: FLT3 (human), P36888 [D835H]; conditions: compound 10.0 µM
[41] = system: FLT3 (human), P36888 [K663Q]; conditions: compound 10.0 µM
[42] = system: RET (human), P07949 [V804M]; conditions: compound 10.0 µM

Chain of PRKCQ (human) (Q04759 whole entry, looked up): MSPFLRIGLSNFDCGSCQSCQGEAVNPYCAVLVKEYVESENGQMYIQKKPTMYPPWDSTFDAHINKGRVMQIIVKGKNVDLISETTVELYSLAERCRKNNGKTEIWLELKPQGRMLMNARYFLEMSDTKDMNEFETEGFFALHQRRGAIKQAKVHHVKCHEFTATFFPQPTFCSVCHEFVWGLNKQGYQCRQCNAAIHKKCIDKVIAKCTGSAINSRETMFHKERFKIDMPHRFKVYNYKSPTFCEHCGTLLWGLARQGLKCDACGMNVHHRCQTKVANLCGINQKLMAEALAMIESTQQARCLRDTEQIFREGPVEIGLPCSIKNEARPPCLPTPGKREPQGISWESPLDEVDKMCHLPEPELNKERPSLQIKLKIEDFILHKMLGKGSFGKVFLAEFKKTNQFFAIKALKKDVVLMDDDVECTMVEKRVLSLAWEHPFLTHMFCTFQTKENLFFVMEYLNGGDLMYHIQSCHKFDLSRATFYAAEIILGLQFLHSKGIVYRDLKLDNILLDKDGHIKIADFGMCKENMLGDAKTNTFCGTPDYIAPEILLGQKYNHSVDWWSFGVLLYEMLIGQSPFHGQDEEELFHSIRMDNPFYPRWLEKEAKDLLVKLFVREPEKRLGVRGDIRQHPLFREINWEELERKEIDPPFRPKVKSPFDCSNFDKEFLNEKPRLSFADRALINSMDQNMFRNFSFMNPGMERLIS
Chain of DYRK1B (human) (Q9Y463 whole entry, looked up): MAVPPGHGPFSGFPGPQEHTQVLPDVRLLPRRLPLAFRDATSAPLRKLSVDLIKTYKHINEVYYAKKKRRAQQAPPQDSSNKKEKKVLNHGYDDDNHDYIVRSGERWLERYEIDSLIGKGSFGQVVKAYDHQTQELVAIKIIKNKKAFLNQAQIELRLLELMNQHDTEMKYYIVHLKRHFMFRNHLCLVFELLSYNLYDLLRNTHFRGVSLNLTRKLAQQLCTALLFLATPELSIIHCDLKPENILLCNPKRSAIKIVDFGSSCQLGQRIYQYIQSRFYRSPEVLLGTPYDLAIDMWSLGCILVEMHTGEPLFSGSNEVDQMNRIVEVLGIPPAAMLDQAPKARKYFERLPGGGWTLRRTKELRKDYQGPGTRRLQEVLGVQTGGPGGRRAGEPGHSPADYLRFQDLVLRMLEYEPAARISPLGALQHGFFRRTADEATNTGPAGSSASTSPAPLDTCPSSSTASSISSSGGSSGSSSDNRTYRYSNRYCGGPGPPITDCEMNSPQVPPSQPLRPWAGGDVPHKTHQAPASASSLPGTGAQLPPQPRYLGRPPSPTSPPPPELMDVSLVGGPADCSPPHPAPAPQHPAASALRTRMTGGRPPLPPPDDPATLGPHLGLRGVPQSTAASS
Chain of MST4 (human) (Q9P289 whole entry, looked up): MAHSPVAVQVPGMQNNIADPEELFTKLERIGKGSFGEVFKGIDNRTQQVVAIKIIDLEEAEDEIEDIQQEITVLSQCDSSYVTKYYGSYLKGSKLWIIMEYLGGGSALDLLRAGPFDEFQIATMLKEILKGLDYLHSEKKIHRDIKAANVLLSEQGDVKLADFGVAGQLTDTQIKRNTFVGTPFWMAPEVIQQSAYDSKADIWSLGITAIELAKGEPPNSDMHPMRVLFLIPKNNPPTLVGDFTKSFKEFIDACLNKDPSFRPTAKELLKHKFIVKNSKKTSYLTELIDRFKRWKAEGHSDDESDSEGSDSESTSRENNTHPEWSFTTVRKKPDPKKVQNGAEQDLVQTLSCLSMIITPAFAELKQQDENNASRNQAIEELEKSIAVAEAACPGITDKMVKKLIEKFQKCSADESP
Chain of TESK1 (human) (Q15569 whole entry, looked up): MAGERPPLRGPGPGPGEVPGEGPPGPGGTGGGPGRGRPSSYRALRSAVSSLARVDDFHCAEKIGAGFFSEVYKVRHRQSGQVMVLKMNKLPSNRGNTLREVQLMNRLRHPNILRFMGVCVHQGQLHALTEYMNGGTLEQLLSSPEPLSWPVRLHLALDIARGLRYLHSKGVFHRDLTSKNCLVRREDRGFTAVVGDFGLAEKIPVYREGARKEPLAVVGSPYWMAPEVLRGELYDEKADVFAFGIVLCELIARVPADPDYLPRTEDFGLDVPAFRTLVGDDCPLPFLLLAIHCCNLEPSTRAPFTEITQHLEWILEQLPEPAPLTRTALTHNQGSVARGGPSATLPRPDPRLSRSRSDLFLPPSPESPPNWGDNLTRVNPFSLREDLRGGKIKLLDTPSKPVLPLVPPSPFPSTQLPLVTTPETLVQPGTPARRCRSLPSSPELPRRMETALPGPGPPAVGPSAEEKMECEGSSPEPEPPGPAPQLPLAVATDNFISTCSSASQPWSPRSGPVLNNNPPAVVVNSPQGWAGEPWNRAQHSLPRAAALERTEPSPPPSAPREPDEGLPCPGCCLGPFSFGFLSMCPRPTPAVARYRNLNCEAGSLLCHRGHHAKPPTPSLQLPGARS
Chain of MST1R (human) (Q04912 whole entry, looked up): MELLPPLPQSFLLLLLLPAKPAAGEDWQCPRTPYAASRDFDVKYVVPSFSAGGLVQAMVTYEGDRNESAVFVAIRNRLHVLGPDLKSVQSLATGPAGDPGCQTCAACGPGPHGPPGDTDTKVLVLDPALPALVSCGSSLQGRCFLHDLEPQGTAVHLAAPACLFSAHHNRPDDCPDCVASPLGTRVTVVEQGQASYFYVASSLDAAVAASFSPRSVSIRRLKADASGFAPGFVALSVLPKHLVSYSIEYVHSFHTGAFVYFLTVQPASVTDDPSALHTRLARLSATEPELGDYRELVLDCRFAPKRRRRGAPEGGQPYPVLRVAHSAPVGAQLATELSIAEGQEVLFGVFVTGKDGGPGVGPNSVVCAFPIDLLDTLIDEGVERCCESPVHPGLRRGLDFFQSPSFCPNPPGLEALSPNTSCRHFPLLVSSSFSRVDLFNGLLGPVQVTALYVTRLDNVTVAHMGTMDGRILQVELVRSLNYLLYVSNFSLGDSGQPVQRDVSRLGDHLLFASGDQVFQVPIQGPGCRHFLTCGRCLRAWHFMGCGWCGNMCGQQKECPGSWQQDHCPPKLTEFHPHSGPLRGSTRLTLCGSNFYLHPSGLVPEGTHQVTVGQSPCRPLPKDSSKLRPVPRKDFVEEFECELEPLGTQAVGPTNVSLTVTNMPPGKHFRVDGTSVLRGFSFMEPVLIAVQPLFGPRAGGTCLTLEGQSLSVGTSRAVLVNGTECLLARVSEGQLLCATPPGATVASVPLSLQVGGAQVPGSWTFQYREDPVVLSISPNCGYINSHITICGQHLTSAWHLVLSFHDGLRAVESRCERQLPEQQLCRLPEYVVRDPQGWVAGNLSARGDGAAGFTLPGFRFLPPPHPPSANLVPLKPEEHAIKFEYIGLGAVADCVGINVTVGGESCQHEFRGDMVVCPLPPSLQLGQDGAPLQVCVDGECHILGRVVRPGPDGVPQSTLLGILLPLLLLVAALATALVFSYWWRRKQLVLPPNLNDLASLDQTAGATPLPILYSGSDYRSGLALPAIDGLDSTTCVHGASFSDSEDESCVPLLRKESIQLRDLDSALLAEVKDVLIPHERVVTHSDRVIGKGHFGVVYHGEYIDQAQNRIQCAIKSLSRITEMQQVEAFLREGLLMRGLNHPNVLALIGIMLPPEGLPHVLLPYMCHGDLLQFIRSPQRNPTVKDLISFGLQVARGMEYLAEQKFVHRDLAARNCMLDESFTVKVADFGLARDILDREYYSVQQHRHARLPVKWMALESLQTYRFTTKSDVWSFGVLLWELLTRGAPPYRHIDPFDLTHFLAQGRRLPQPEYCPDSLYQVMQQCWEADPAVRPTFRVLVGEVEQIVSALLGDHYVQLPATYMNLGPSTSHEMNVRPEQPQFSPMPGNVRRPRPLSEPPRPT
Chain of CSNK2A1 (human) (P68400 whole entry, looked up): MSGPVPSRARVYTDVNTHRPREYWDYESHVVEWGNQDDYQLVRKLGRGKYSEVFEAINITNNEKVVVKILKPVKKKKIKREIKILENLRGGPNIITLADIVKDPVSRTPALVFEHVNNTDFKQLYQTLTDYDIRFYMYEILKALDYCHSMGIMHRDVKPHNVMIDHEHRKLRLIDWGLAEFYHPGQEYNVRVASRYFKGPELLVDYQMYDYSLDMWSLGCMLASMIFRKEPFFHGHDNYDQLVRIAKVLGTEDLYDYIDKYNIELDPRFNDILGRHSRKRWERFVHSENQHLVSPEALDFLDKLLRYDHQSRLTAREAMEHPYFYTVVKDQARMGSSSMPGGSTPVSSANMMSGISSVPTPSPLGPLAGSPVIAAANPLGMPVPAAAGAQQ
Chain of NEK7 (human) (Q8TDX7 whole entry, looked up): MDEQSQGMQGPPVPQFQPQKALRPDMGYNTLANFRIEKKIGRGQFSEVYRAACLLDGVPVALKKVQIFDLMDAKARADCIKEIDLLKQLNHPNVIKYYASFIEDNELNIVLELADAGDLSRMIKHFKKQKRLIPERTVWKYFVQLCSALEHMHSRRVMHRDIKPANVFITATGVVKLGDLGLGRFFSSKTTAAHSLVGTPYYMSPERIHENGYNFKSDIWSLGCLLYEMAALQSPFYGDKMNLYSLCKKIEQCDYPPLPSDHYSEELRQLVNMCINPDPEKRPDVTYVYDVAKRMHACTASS
Chain of AURKB (human) (Q96GD4 whole entry, looked up): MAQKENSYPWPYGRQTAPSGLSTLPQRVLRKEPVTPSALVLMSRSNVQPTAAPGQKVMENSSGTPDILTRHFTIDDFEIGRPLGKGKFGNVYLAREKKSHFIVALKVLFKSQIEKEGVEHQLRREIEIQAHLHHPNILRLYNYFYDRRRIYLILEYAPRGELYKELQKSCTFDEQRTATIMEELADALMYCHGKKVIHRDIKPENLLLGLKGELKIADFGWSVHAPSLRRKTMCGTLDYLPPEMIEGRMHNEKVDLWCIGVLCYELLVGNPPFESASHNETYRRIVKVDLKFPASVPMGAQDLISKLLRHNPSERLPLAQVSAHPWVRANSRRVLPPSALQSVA

- kinase still bound, per cent of control [1]: 0%
- kinase still bound, per cent of control [2]: 40%
- kinase still bound, per cent of control [3]: 40%
- kinase still bound, per cent of control [4]: 13%
- kinase still bound, per cent of control [5]: 6.5%
- kinase still bound, per cent of control [6]: 40%
- kinase still bound, per cent of control [7]: 13%
- kinase still bound, per cent of control [8]: 40%
- kinase still bound, per cent of control [9]: 27%
- kinase still bound, per cent of control [10]: 0.5%
- kinase still bound, per cent of control [11]: 40%
- kinase still bound, per cent of control [12]: 27%
- kinase still bound, per cent of control [13]: 40%
- kinase still bound, per cent of control [14]: 23%
- kinase still bound, per cent of control [15]: 40%
- kinase still bound, per cent of control [16]: 40%
- kinase still bound, per cent of control [17]: 33%
- kinase still bound, per cent of control [18]: 0.1%
- kinase still bound, per cent of control [19]: 0%
- kinase still bound, per cent of control [20]: 1.2%
- kinase still bound, per cent of control [21]: 3%
- kinase still bound, per cent of control [22]: 0.05%
- kinase still bound, per cent of control [23]: 0.7%
- kinase still bound, per cent of control [24]: 40%
- kinase still bound, per cent of control [25]: 40%
- kinase still bound, per cent of control [26]: 2.2%
- kinase still bound, per cent of control [27]: 0.1%
- kinase still bound, per cent of control [28]: 25%
- kinase still bound, per cent of control [29]: 0%
- kinase still bound, per cent of control [30]: 0%
- kinase still bound, per cent of control [31]: 3.8%
- kinase still bound, per cent of control [32]: 6.4%
- kinase still bound, per cent of control [33]: 40%
- kinase still bound, per cent of control [34]: 1.2%
- kinase still bound, per cent of control [35]: 0%
- kinase still bound, per cent of control [36]: 1%
- kinase still bound, per cent of control [37]: 0.75%
- kinase still bound, per cent of control [38]: 40%
SMILES: COc1cc(N2CCC(N3CCN(C)CC3)CC2)ccc1Nc1ncc(Cl)c(Nc2ccccc2S(=O)(=O)C(C)C)n1

SMILES: CCN1CCN(Cc2ccc(NC(=O)c3ccc(C)c(/C=C/c4cnc(Nc5cc(N6CCNCC6)nc(C)n5)cn4)c3)cc2C(F)(F)F)CC1
- kinase still bound, per cent of control [1]: 1.6%
- kinase still bound, per cent of control [2]: 46%
- kinase still bound, per cent of control [3]: 91%
- kinase still bound, per cent of control [4]: 2.5%
- kinase still bound, per cent of control [5]: 9.6%
- kinase still bound, per cent of control [39]: 9.4%
- kinase still bound, per cent of control [6]: 49%
- kinase still bound, per cent of control [7]: 81%
- kinase still bound, per cent of control [8]: 76%
- kinase still bound, per cent of control [9]: 4.6%
- kinase still bound, per cent of control [10]: 100%
- kinase still bound, per cent of control [11]: 4.3%
- kinase still bound, per cent of control [12]: 89%
- kinase still bound, per cent of control [13]: 100%
- kinase still bound, per cent of control [14]: 100%
- kinase still bound, per cent of control [15]: 23%
- kinase still bound, per cent of control [40]: 2.4%
- kinase still bound, per cent of control [16]: 43%
- kinase still bound, per cent of control [17]: 5.7%
- kinase still bound, per cent of control [18]: 7%
- kinase still bound, per cent of control [19]: 0%
- kinase still bound, per cent of control [20]: 31%
- kinase still bound, per cent of control [21]: 85%
- kinase still bound, per cent of control [22]: 76%
- kinase still bound, per cent of control [23]: 24%
- kinase still bound, per cent of control [24]: 83%
- kinase still bound, per cent of control [25]: 88%
- kinase still bound, per cent of control [26]: 15%
- kinase still bound, per cent of control [27]: 94%
- kinase still bound, per cent of control [28]: 90%
- kinase still bound, per cent of control [29]: 71%
- kinase still bound, per cent of control [30]: 97%
- kinase still bound, per cent of control [31]: 100%
- kinase still bound, per cent of control [32]: 85%
- kinase still bound, per cent of control [33]: 4.6%
- kinase still bound, per cent of control [34]: 7%
- kinase still bound, per cent of control [41]: 0.15%
- kinase still bound, per cent of control [35]: 100%
- kinase still bound, per cent of control [36]: 100%
- kinase still bound, per cent of control [37]: 98%
- kinase still bound, per cent of control [38]: 3.8%
- kinase still bound, per cent of control [42]: 0.15%

SMILES: CCOc1cc(N2CCC(N3CCCCC3)CC2)ccc1Nc1nc(Nc2ccccc2S(=O)(=O)C(C)C)c2cn[nH]c2n1
- kinase still bound, per cent of control [1]: 100%
- kinase still bound, per cent of control [2]: 100%
- kinase still bound, per cent of control [3]: 100%
- kinase still bound, per cent of control [4]: 100%
- kinase still bound, per cent of control [5]: 51%
- IC50 [39]: 58 µM
- kinase still bound, per cent of control [39]: 3.6%
- kinase still bound, per cent of control [6]: 100%
- kinase still bound, per cent of control [7]: 100%
- kinase still bound, per cent of control [8]: 42%
- kinase still bound, per cent of control [9]: 100%
- kinase still bound, per cent of control [10]: 94%
- kinase still bound, per cent of control [11]: 71%
- kinase still bound, per cent of control [12]: 100%
- kinase still bound, per cent of control [13]: 100%
- kinase still bound, per cent of control [14]: 100%
- kinase still bound, per cent of control [15]: 100%
- kinase still bound, per cent of control [40]: 74%
- kinase still bound, per cent of control [16]: 97%
- kinase still bound, per cent of control [17]: 100%
- kinase still bound, per cent of control [18]: 33%
- kinase still bound, per cent of control [19]: 100%
- kinase still bound, per cent of control [20]: 5.2%
- kinase still bound, per cent of control [21]: 100%
- kinase still bound, per cent of control [22]: 96%
- kinase still bound, per cent of control [23]: 98%
- kinase still bound, per cent of control [24]: 100%
- kinase still bound, per cent of control [25]: 100%
- kinase still bound, per cent of control [26]: 100%
- kinase still bound, per cent of control [27]: 0.75%
- kinase still bound, per cent of control [28]: 100%
- kinase still bound, per cent of control [29]: 36%
- kinase still bound, per cent of control [30]: 5.2%
- kinase still bound, per cent of control [31]: 100%
- kinase still bound, per cent of control [32]: 60%
- kinase still bound, per cent of control [33]: 98%
- kinase still bound, per cent of control [34]: 7.8%
- kinase still bound, per cent of control [41]: 100%
- kinase still bound, per cent of control [35]: 0.2%
- kinase still bound, per cent of control [36]: 100%
- kinase still bound, per cent of control [37]: 100%
- kinase still bound, per cent of control [38]: 100%
- kinase still bound, per cent of control [42]: 100%

- kinase still bound, per cent of control [1]: 1.7%
- kinase still bound, per cent of control [39]: 2.2%
- kinase still bound, per cent of control [40]: 1.2%
- kinase still bound, per cent of control [17]: 11%
- kinase still bound, per cent of control [18]: 3%
- kinase still bound, per cent of control [19]: 0%
- kinase still bound, per cent of control [24]: 0.55%
- kinase still bound, per cent of control [25]: 0.4%
- kinase still bound, per cent of control [33]: 0%
- kinase still bound, per cent of control [34]: 28%
- kinase still bound, per cent of control [41]: 0%
- kinase still bound, per cent of control [35]: 23%
- kinase still bound, per cent of control [38]: 8.4%
- kinase still bound, per cent of control [42]: 1%
SMILES: CCN1CCN(Cc2ccc(NC(=O)c3ccc(C)c(Oc4ccnc5[nH]ccc45)c3)cc2C(F)(F)F)CC1
